Patent US20170191058A1, “PERFORIN 2 DEFENSE AGAINST INVASIVE AND MULTIDRUG RESISTANT PATHOGENS” (priority 2012, published 2017)
“Also recorded” adds a separate entry of the source. Residues, ends and D or L forms follow the SMILES beside them. *: point of attachment. Cbz = O=C(OCc1ccccc1)*

Columns and labels:
Salmonella = experiment: Gentamycin protection assay: intracellular Salmonella in mEF; type: cell-based, Salmonella typhimurium
Experimental: Mouse rectal carcinoma CMT-93 was transiently transfected with a P-2 siRNA pool, or with P-2-RFP. Scramble siRNA or RFP were also transfected and analyzed to serve as controls for P-2 siRNA and P-2-RFP respectively. All transfections were performed 24 hours prior to infection. 14 hours prior to infection, cells were incubated with 100 U/ml of species specific IFN-γ. At indicated time points after infection, cells were lysed and plated for CFU analysis. (FIGS. 16A-16D) mEF were transfected with P-2siRNA and complemented with siRNA resistant P-2-RFP cDNA 24 hours prior to infection. 14 hours prior to infection, interferon-γ was added. mEF were infected with late log phase S. typhimurium. At indicated time points mEFs were lysed and analyzed for colony forming units. […]
S. typhimurium strain LT2Z), Mycobacterium smegmatis, methicillin-resistant Staphylococcus aureus, and E. coli strain K12 were grown from glycerol stocks at 37° C. with shaking for 24 hours in Luria broth (S. typhimurium, S. aureus, and E. coli) or Middlebrook 7H9 broth (M. smegmatis). […] At indicated time points, cells were washed with PBS, lysed using 1% Igepal in ddH2O, diluted and plated in technical triplicate on LB agar plates (S. typhimurium, S. aureus, E. coli) or Middlebrook 7H11 plates (M. smegmatis) and CFU determined after sufficient colony growth.

P-2 protein = experiment: Western blot of P-2 protein in interferon-activated mEF; type: cell-based, murine; details: IFN-γ 14 hours then 1 hour MG-132
Experimental: (§1) Murine embryonic fibroblasts (FIG. 14A), a rectal cancer cell line (FIG. 14B), myoblast cell line (FIG. 14C), and an ovarian cell line (FIG. 14D) were treated for 14 hours with 100 U/ml interferon-α, interferon-β, and interferon-γ treated. LPS was treated at 1 ng/ml; IL-1α at 10 U/ml, IL-1β at 1 ng/ml, and TNFα at 20 ng/mL. A human embryonic kidney cell line (FIG. 14E) and cervical cancer cell line (FIG. 14F) were treated with human IFN-α at 150 U/ml, IFN-β and IFN-γ at 100 U/ml. The BV2 microglial cell line was stimulated with 100 U/ml of murine Interferon-γ for 14 hours to upregulate P-2 mRNA and protein. mEF treated with IFN-γ for 14 hours (mEF), or IFN-γ for 14 hours followed by 1 hour of treatment with […] MG-132 (mEF+MG132) (FIG. 14G). Human primary keratinocytes were analyzed for protein expression with indicated recombinant human IFN treatment (FIG. 14H). mEF were treated with E. coli or M. smegmatis. At indicated time points, cells were harvested and analyzed for P-2 mRNA and compared to uninfected controls by TAQMAN™ PCR. (FIG. 14I) mEF were either not stimulated, or stimulated for 14 hours with IFN-γ at 100 U/ml. After stimulation, mEF were infected with M. smegmatis and analyzed for colony forming units at indicated time points.
Rabbit anti-Mpeg1 polyclonal antibody was obtained from Abcam and used for western blot analysis.

[1] = test system: E. coli, S. typhimurium and M. smegmatis; experiment: Bacterial growth in medium with ROS/NO inhibitors, no PEM (OD 600); type: cell-based; details: 10 mM, IMDM+10% FBS, 5 hours
Experimental: E. coli, S. typhimurium and M. smegmatis were grown in IMDM+10% FBS in the presence or absence of NAC (10 mM) or L-NAME (10 mM) for 5 hours. Bacterial growth was measured by spectrophotometer at an OD of 600 nm at 1 and 4 hours after addition of inhibitors to the culture medium.

[2] = test system: E. coli, S. typhimurium, M. smegmatis; experiment: Gentamycin protection assay in PEM infected with E. coli, S. typhimurium or M. smegmatis (FIG. 1); type: cell-based; details: 10 mM NAC, 10 mM L-NAME or pool of 3 siRNAs, CFU at 1 h and 5 h
Experimental: The gentamycin protection assay was carried out as in FIGS. 2A-2F. 24 h after transfection with P-2 siRNA or scrambled siRNA. PEM were infected with (FIG. 1A) E. coli, (FIG. 1B) S. typhimurium, or (FIG. 1C) M. smegmatis. Inhibitors were added 1 h before infection and maintained throughout assay. Cells were lysed and CFU determined at 1 h and 5 h post-infection. Data shown are representative of 3 experiments with 2 replicates; asterisks denote significance (p<0.05) based on students t-test.
Gentamicin protection assay: S. typhimurium strain LT2Z, Mycobacterium avium, Mycobacterium smegmatis (ATCC), methicllin resistant Staphylococcus aureus and K12 E. coli were grown from glycerol stocks at 37° C. with shaking for 16-18 hr in Luria broth (LB) (S. typhimurium, S. aureus, and E. coli) or Middlebrook 7H9 broth (Mycobacteria) prior to infection. For Salmonella, the culture was then diluted 1:33 in LB and grown for another 3 hours to induce invasive phenotype. Macrophages or microglial cells were plated (5×10^5 cells/well of a 12 well plate) and stimulated overnight with LPS (Ing/ml) and IFN-γ (100 U/ml). […] At the indicated timepoints after adding gentamicin, the cells were washed with PBS, lysed using 0.1% Triton-X in water, diluted and plated in triplicate on agar plates and CFU determined.

S. typhimurium = experiment: Gentamycin protection assay: intracellular S. typhimurium in peritoneal macrophages (PEM); type: cell-based, Salmonella typhimurium; details: for additional effect on intracellular replication/killing when combined with P-2 knockdown: inhibitor plus P-2 siRNA knock down; for effect on intracellular killing of Salmonellae: single effector blocked, 1-5 h post-infection
Experimental: Gentamicin protection assay: S. typhimurium strain LT2Z, Mycobacterium avium, Mycobacterium smegmatis (ATCC), methicllin resistant Staphylococcus aureus and K12 E. coli were grown from glycerol stocks at 37° C. with shaking for 16-18 hr in Luria broth (LB) (S. typhimurium, S. aureus, and E. coli) or Middlebrook 7H9 broth (Mycobacteria) prior to infection. For Salmonella, the culture was then diluted 1:33 in LB and grown for another 3 hours to induce invasive phenotype. Macrophages or microglial cells were plated (5×10^5 cells/well of a 12 well plate) and stimulated overnight with LPS (Ing/ml) and IFN-γ (100 U/ml). Cells were infected the next day at indicated MOI for 30 minutes (S. typhimurium,) or 1 hour (all other bacteria) in 37° C., 5% CO2 incubator. Cells were washed twice with PBS and fresh medium containing 50 μg/ml gentamicin was added. After 2 hours the concentration of gentamicin was lowered to 5 μg/ml. At the indicated timepoints after adding gentamicin, the cells were washed with PBS, lysed using 0.1% Triton-X in water, diluted and plated in triplicate on agar plates and CFU determined.
The current understanding of bactericidal responses in macrophages is that they are mediated by oxidative mechanisms, such as ROS and NO within the phagosome, and by phagosome-lysosome fusion. To assess the role of P-2 in comparison to ROS and NO in intracellular killing of bacteria, each of the bactericidal effectors was blocked individually or in combination with P-2, and intracellular bacterial survival in peritoneal macrophages (PEM) measured between 1 and 5 hours post-infection utilizing the gentamycin protection assay (FIGS. 1A-1C). Gentamycin is membrane impermeable and present only in the extracellular medium. Inhibition of ROS, NO or P-2 individually had different effects on different bacteria. Using S. typhimurium, ˜90% bacteria present intracellularly in PEM at 1 h were dead at 5 h in the absence of inhibitors (˜10% survival, FIG. 1 A). […] In other words without P-2 ROS and NO have little effect on killing of Salmonellae.
Here we analyze the bactericidal efficiency of each effector pathway and their synergism. We blocked each effector individually and determined intracellular survival and replication or killing of intracellular S. typhimurium and M. smegmatis. These experiments were carried out with intestinal epithelial cells (CMT93) (not shown) and in IFN-γ activated PEM (FIG. 27e) with virtually identical results. First, we ascertained that IFN-γ activated and LPS stimulated PEM produced ROS and NO and that this production is not affected by P-2 siRNA knock down. We also ascertained that the ROS and NO inhibitors used were specific and active in blocking ROS or NO (not shown). PEM are able to kill about 90% of intracellular Salmonella in the first four hours after infection when all three effectors were active in scramble siRNA transfected cells (FIG. 27e, solid lines). […] M. smegmatis is more resistant to killing by bactericidal effectors within 4 hours. […] Blockade of ROS or NO without P-2 knock down had only limited, non-significant effects on bactericidal activity against Mycobacteria.
Intracellular bactericidal activity was adapted from. In brief, bacteria were grown at 37° C. with shaking for 16-18 hours in Luria broth (LB) (S. typhimurium, S. aureus, and E. coli) or 24 hours in Middlebrook 7H9 broth (Mycobacteria) prior to infection. For S. typhimurium, E. coli, and S. aureus the culture was then diluted 1:33 in LB and grown for another 3 hours to allow the bacteria to enter log phase and for Salmonella to induce the invasive phenotype. Eukaryotic cells were transfected following Lonza's optimized protocol for the respective cells, and plated into 12-well plates post-transfection. […]

P-2 mRNA = P-2 mRNA expression in mEF by TAQMAN PCR after cytokine treatment; type: cell-based, murine; details: added singly, 14 hours
Experimental: as §1
Recombinant murine IL-1α, IL-1β, TNFα, IFN-γ, IFN-α, IFN-β recombinant human IFN-γ, IFN-β were purchased from preprotech. Recombant human IFN-α was purchased from R&D systems. Murine […] was supplemented at 10 U/mL where indicated. Murine IL-1β was supplemented at 1 ng/ml. Murine TNFα was supplemented at 20 ng/ml. Murine IFN-α, IFN-β and IFN-γ was supplemented with 100 U/ml. Human IFN-α was supplemented where indicated in at a concentration of 150 U/ml where indicated. Human IFN-β and IFN-γ was supplemented at a concentration of 100 U/ml. LPS was added at a concentration of 1 ng/ml.
RNA was extracted from cells following RNeasy (Qiagen) instructions. One μg of RNA was converted to cDNA using QuantiTect Reverse Transcription kit (Qiagen) following supplier's protocol. qRT-PCR was performed using TAQMAN® Gene Expression Assays (Applied Biosystems) for murine Mpeg1 and GAPDH, with the later serving as a housekeeping control gene. For human tissues, human Mpeg1 and GapDH probes were utilized. All assays were performed on the Applied Biosystems 7300 PCR platform.

With Cn1cnc(N)c2ncnc1-2 [3-MA, 3-methyl-adenine] the “effect on intracellular Salmonella replication in mEF” value (Salmonella) was “permits Salmonella replication; also recorded: allows replication of Salmonella”.

With CC(C)C[C@@H](C=O)NC(=O)[C@H](CC(C)C)NC(=O)[C@H](CC(C)C)NC(=O)OCc1ccccc1 [MG132] (Cbz-Leu-Leu-Leu-aldehyde) the “detection of P-2 protein by Western blot” value (P-2 protein) was “P-2 protein is not detected by Western blot analysis of interferon-activated mEF unless the proteasome inhibitor MG132 is added”.

In the case of CC(=O)N[C@@H](CS)C(=O)O [NAC, N-Acetylcysteine], the “effect on bacterial growth in the absence of PEM” value [1] is reported as “do not directly inhibit bacterial growth”, the intracellular killing [2] is reported as “Intracellular killing was inhibited” and the “survival of Salmonellae at 5 h compared to 1 h levels” value (S. typhimurium; inhibitor 10 mM, added 1 h before infection, ~10% survival without inhibitors) is reported as ~80%. For the same molecule, the “additional effect on intracellular replication/killing when combined with P-2 knockdown” value (S. typhimurium) was “did not further increase intracellular replication; also recorded: no further effect” and the “effect on intracellular killing of Salmonellae” value (S. typhimurium) was “slows down the killing activity”.

With COC(=O)[C@@H](N)CCCN=C(N)N[N+](=O)[O-].Cl [L-NAME, N^G-nitro-L-arginine-methyl ester hydrochloride] the “effect on bacterial growth in the absence of PEM” value [1] was “do not directly inhibit bacterial growth”, the intracellular killing [2] was “Intracellular killing was inhibited” and the “additional effect on intracellular replication/killing when combined with P-2 knockdown” value (S. typhimurium; hydrochloride) was “did not further increase intracellular replication”. For the same molecule, the “additional effect on intracellular replication/killing when combined with P-2 knockdown” value (S. typhimurium; listed as NAME, hydrochloride) was “no further effect” and the “effect on intracellular killing of Salmonellae” value (S. typhimurium; hydrochloride) was “slows down the killing activity”.

IFNα was tested, and the “P-2 mRNA induction in mEF” value (P-2 mRNA) was “up-regulates P-2 mRNA”.

In the case of TNFα, the “P-2 mRNA induction in mEF” value (P-2 mRNA) is reported as “do not induce P-2 mRNA”.

B1: IL-1α: recombinant murine IL-1α (protein, UniProt P01582 115-270, looked up)
Interleukin-1 alpha: SAPYTYQSDLRYKLMKLVRQKFVMNDSLNQTIYQDVDKHYLSTTWLNDLQQEVKFDMYAYSSGGDDSKYPVTLKISDSQLFVSAQGEDQPVLLKELPETPKLITGSETDLIFFWKSINSKNYFTSAAYPELFIATKEQSRVHLARGLPSMTDFQIS
In the case of B1, the “P-2 mRNA induction in mEF” value (P-2 mRNA) is reported as “do not induce P-2 mRNA”.
